Measurements as given in publication PMC10060354, “Discovery of a small molecule ligand of FRS2 that inhibits invasion and tumor growth” (Cellular Oncology, 2022).
Values after ≈ are worked out from the molar mass of the structure shown. Like-named read-outs stand apart in the source and are kept apart here.

Legend:
[1] = tested on: HepG2 human hepatocellular carcinoma cells; assay: Cell viability (cytotoxicity, MTT) using HepG2; format: cell-based; details: for MEC: 72h, 3 replicas, NR = No response (Summary sheet); for MTT (MEC) Minimum effective concentration / MTT (AC50) Conc at which 50% of maximum efficacy is reached: 72 h, summary sheet
In short: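 Compounds were tested at 8 concentrations in triplicate on HepG2 cells plated 24 h beforehand, with 72 h exposure in 1% DMSO medium. MTT was loaded 1 h before the end, solubilized in DMSO and read at 570 nm. Minimum effective concentration is the lowest concentration exceeding the significance level, given dose-response or two consecutive points above it.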

DAOY cells = assay: Spheroid invasion assay (SIA), bFGF-induced collagen I invasion; format: cell-based, human; details: for functional activity in SIA (result in words): DAOY, bFGF-induced, 1, 5 and 10 µM
In short: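 Spheroids formed over 24–72 h were embedded in collagen I (final 1.75 mg/ml) and stimulated with bFGF (100 ng/ml unless stated), HGF 30 ng/ml or EGF 20 ng/ml with compound in DMSO. Invasion distance was quantified 24–48 h after embedding.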

[2] = Semi-thermodynamic solubility; format: physicochemical; details: for solubility / solubility thermodynamic: PBS, aqueous buffer, thermodynamic from solid; for solubility: Room Temp, Overnight, LC-MSMS; for solubility thermodynamic: overnight; for solubility thermodynamic / Solubility (class in words): summary sheet; for solubility (result in words): Supplementary Table 2
In short: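 Compound solution agitated overnight at ambient temperature, then centrifuged twice (30 min, 3000 rpm, RT). Supernatant diluted in 50% methanol/water with internal standard and quantified by LC–MS/MS. Solubility derived from a linear or quadratic fit of the standard curve.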

[3] = CaCo-2 permeability (bi-directional); details: human
Procedure: Caco-2 cells obtained from the ATCC were used between passage numbers 40—60. Cells were seeded onto Millipore Multiscreen Transwell plates at 1 × 10^5 cells/cm^2. The cells were cultured in DMEM and media was changed every two or three days. On day 20, the permeability study was performed. […] Cells were then incubated with HBSS at the desired pH in both apical and basolateral compartments for 40 min to stabilize physiological parameters.
The fluorescent integrity marker lucifer yellow was also included in the dosing solution. Analytical standards were prepared from test compound DMSO dilutions and transferred to buffer, maintaining a 1% v/v DMSO concentration.
For assessment of A-B permeability, HBSS was removed from the apical compartment and replaced with test compound dosing solution. The apical compartment insert was then placed into a companion plate containing fresh buffer (containing 1% v/v DMSO). For assessment of B-A permeability, HBSS was removed from the companion plate and replaced with test compound dosing solution. Fresh buffer (containing 1% v/v DMSO) was added to the apical compartment insert, which was then placed into the companion plate.
Compound permeability was assessed in duplicate. Compounds of known permeability characteristics were run as controls on each assay plate.
Test and control compounds were quantified by LC–MS/MS cassette analysis using a 7-point calibration with appropriate dilution of the samples. The starting concentration (C0) was determined from the dosing solution and the experimental recovery calculated from C0 and both apical and basolateral compartment concentrations. The integrity of the monolayer throughout the experiment was checked by monitoring lucifer yellow permeation using fluorimetric analysis.
The permeability coefficient (Papp) for each compound was calculated from the following equation: Papp=dQ/dtC0×A where dQ/dt was the rate of permeation of the drug across the cells, C0 was the donor compartment concentration at time zero and A was the area of the cell monolayer. C0 was obtained from analysis of the dosing solution.
Efflux ratio (ER) was calculated from mean A-B and B-A data. This was derived from: ER=Papp(B-A)Papp(A-B)

[4] = Microsomal metabolic stability; format: in vitro ADME; details: human, pooled liver microsomes; for half-life at 1 µM: pH 7.4, liver microsomes; for microsomal CLint at 1 µM: pH 7.4, read-out: Metabolic stability - Intrinsic clearance (CI)
Procedure: Pooled liver microsomes were purchased from Xenotech (H0500) and were stored according to manufacturer’s instructions prior to use. […] A minus co-factor control incubation was included for each compound tested where 0.1 M phosphate buffer pH 7.4 was added instead of NADPH. Two control compounds were included with each species. All incubations were performed singularly for each shortlisted hit. Each compound was incubated for 0, 5, 15, 30 and 45 min. The minus co-factor was incubated for 45 min only. The reactions were stopped by transferring incubate into acetonitrile at the appropriate time points in a 1:3 ratio. The termination plates were centrifuged at 3000 rpm for 20 min at 4 °C to precipitate the protein. Following protein precipitation, the supernatant were combined in cassette of up to 4 compounds, internal standard for MS analysis was added and samples were analyzed using LC–MS/MS. From a plot of In peak area ratio (compound peak area/internal standard peak area) against time, the gradient of the lines were determined. Subsequently, half-life and intrinsic clearance were calculated using the following equations. Eliminationrateconstant(k)=(-gradient)Half-life(t1/2)(min)=0.693/kIntrinsicclearance(CLint)(μl/min/mgprotein)=Vx0.693/t1/2 where V = Incubation volume (µl) / Microsomal protein (mg)

[5] = Homo sapiens, Daoy, DAOY cells, n = 3 technical replicas, read-out: EC50 for the inhibition of bFGF-induced collagen I invasion
[6] = read-out: Solubility Replicate 1
[7] = read-out: Solubility Replicate 2
[8] = read-out: Solubility Replicate 3
[9] = read-out: Solubility Replicate 4
[10] = Caco-2, Mean Papp A-B, Caco-2, summary sheet
[11] = Caco-2, Mean Papp B-A, Caco-2, summary sheet
[12] = Caco-2, pH 7.4, Mean % Recovery A2B, HBSS/HBSS, pH 7.4/7.4
[13] = Caco-2, pH 7.4, Mean % Recovery B2A, HBSS/HBSS, pH 7.4/7.4
[14] = Caco-2, pH 7.4, Mean Papp A2B, HBSS/HBSS, pH 7.4/7.4
[15] = Caco-2, pH 7.4, Mean Papp B2A, HBSS/HBSS, pH 7.4/7.4
[16] = Caco-2, pH 7.4, Papp A2B Replicate 1, HBSS/HBSS, pH 7.4/7.4
[17] = Caco-2, pH 7.4, Papp A2B Replicate 2, HBSS/HBSS, pH 7.4/7.4
[18] = Caco-2, pH 7.4, Papp B2A Replicate 1, HBSS/HBSS, pH 7.4/7.4
[19] = Caco-2, pH 7.4, Papp B2A Replicate 2, HBSS/HBSS, pH 7.4/7.4
[20] = read-out: t1/2 of clearance (CL1/2), in vitro

Row | Structure (SMILES) | solubility ([2]; read-out: Mean Solubility) [µM] | solubility [2, 6] [µM] | solubility [2, 7] [µM] | solubility [2, 8] [µM] | solubility [2, 9] [µM] | solubility thermodynamic [2] [µM] | Solubility (class in words) [2] | efflux ratio at 120 min, 10 μM ([3]; Caco-2) | Papp A→B at 120 min, 10 μM [3, 10] [×10⁻⁶ cm/s] | Papp B→A at 120 min, 10 μM [3, 11] [×10⁻⁶ cm/s] | efflux ratio at 120 min, 10 μM ([3]; Caco-2, pH 7.4) | recovery at 120 min, 10 µM [3, 12] [%] | recovery at 120 min, 10 µM [3, 13] [%] | Papp B→A at 120 min, 10 μM [3, 15] [×10⁻⁶ cm/s] | Papp B→A at 120 min, 10 μM [3, 18] [×10⁻⁶ cm/s] | Papp B→A at 120 min, 10 μM [3, 19] [×10⁻⁶ cm/s] | half-life at 1 µM ([4]; read-out: t1/2) [min] | microsomal CLint at 1 µM [4] [µL/min/mg] | MEC [1] [µM] | MTT (MEC) Minimum effective concentration [1] | also measured
1 | O=[N+]([O-])c1c(Cl)cc(O)c2c1C1C=CCC1C(c1ccc(Cl)cc1)N2 (stereo not shown) [Compound 7] | 10.4 (≈ 3.92 µg/mL) | 11.8 (≈ 4.45 µg/mL) | 9.33 (≈ 3.52 µg/mL) | 9.97 (≈ 3.76 µg/mL) |  | 10.4 (≈ 3.92 µg/mL) | Sparingly | 2.84 | 3.59 | 10.2 | 2.84 | 15.3 | 37.8 | 10.2 | 8.39 | 12 | 3.62 | 383 | 4.38 | 4.38 µM | toxicity in the MTT assay (result in words) [1]: moderately toxic; functional activity in SIA (result in words) (DAOY cells): performed equally well as 3.18; EC50 (DAOY cells; Homo sapiens, Daoy, 100 ng/ml bFGF, read-out: Collagen I invasion EC50): 2.54 µM; IC50 (DAOY cells; Homo sapiens, DAOY wt): 2.76 µM; solubility (result in words) [2]: sparingly soluble; Papp A→B at 120 min, 10 μM [3, 14]: 3.59 ×10⁻⁶ cm/s; Papp A→B at 120 min, 10 μM [3, 16]: 3.41 ×10⁻⁶ cm/s; Papp A→B at 120 min, 10 μM [3, 17]: 3.76 ×10⁻⁶ cm/s; half-life at 1 µM [4, 20]: 3.62 min
2 | O=[N+]([O-])c1c(Cl)cc(O)c2c1C1C=CCC1C(c1ccc(Cl)cc1Cl)N2 (stereo not shown) [Compound 8] | > 100 | > 100 |  | > 100 | > 100 | > 100 | Freely |  |  | 7.05 |  | 32.1 | 33.3 | 7.05 | 7.14 | 6.96 | 3.35 | 414 | 6.79 | 6.79 µM | functional activity in SIA (result in words) (DAOY cells): invasion inhibition only at the highest concentration
3 | O=C(O)c1c(Cl)cc(O)c2c1C1C=CCC1C(c1ccc(Cl)cc1)N2 (stereo not shown) [Compound 13] | > 100 | > 100 | > 100 | > 100 | > 100 | > 100 | Freely | 1.5 | 1.94 | 2.91 | 1.5 | 86.6 | 85 | 2.91 | 2.62 | 3.2 | 83 | 16.7 |  | No response | MTT (AC50) Conc at which 50% of maximum efficacy is reached [1]: No response; functional activity in SIA (result in words) (DAOY cells): mild but dose-depended reduction; Papp A→B at 120 min, 10 μM [3, 14]: 1.94 ×10⁻⁶ cm/s; Papp A→B at 120 min, 10 μM [3, 16]: 1.02 ×10⁻⁶ cm/s; Papp A→B at 120 min, 10 μM [3, 17]: 2.86 ×10⁻⁶ cm/s
4 | N#Cc1c(Cl)cc(O)c2c1C1C=CCC1C(c1ccc(Cl)cc1)N2 (stereo not shown) [Compound 14] | 24.8 (≈ 8.86 µg/mL) | 25 (≈ 8.93 µg/mL) | 16.6 (≈ 5.93 µg/mL) | 27.2 (≈ 9.72 µg/mL) | 30.3 (≈ 10.8 µg/mL) | 24.8 (≈ 8.86 µg/mL) | Sparingly |  |  | 2.31 |  | 81.1 | 50.7 | 2.31 | 3.4 | 1.22 | 1.64 | 845 | 3.93 | 3.93 µM | functional activity in SIA (result in words) (DAOY cells): reduced invasion comparable to the parent compound 7

Continued, in another order:

Row | solubility ([2]; read-out: Mean Solubility) [µM] | solubility [2, 6] [µM] | solubility [2, 7] [µM] | solubility [2, 8] [µM] | solubility [2, 9] [µM] | solubility thermodynamic [2] [µM] | Solubility (class in words) [2] | efflux ratio at 120 min, 10 μM ([3]; Caco-2) | Papp A→B at 120 min, 10 μM [3, 10] [×10⁻⁶ cm/s] | Papp B→A at 120 min, 10 μM [3, 11] [×10⁻⁶ cm/s] | efflux ratio at 120 min, 10 μM ([3]; Caco-2, pH 7.4) | recovery at 120 min, 10 µM [3, 12] [%] | recovery at 120 min, 10 µM [3, 13] [%] | Papp B→A at 120 min, 10 μM [3, 15] [×10⁻⁶ cm/s] | Papp B→A at 120 min, 10 μM [3, 18] [×10⁻⁶ cm/s] | Papp B→A at 120 min, 10 μM [3, 19] [×10⁻⁶ cm/s] | half-life at 1 µM ([4]; read-out: t1/2) [min] | microsomal CLint at 1 µM [4] [µL/min/mg] | Structure (SMILES) | MEC [1] [µM] | MTT (MEC) Minimum effective concentration [1] | also measured
5 | > 100 | > 100 | > 100 | > 100 | > 100 | > 100 | Freely | 8.01 | 4.79 | 38.3 | 8.01 | 73.1 | 104 | 38.3 | 39.9 | 36.8 | 3.91 | 355 | COc1ncc(C(C)NC2CC(C)(C)NC(C)(C)C2)cc1Cl (stereo not shown) [Compound 3.3] | 75.8 | 75.8 µM | EC50 (DAOY cells; [5]): 14.3 µM; Papp A→B at 120 min, 10 μM [3, 14]: 4.79 ×10⁻⁶ cm/s; Papp A→B at 120 min, 10 μM [3, 16]: 4.98 ×10⁻⁶ cm/s; Papp A→B at 120 min, 10 μM [3, 17]: 4.59 ×10⁻⁶ cm/s
6 | > 100 | > 100 | > 100 | > 100 | > 100 | > 100 | Freely | 8.64 | 4.7 | 40.6 | 8.64 | 70.2 | 73.4 | 40.6 | 40 | 41.2 | 29.1 | 47.6 | CC(C)C[C@@H](CO)NCc1cc(O)c2cc(F)ccc2n1 [Compound 3.14] |  | No response | toxicity in the MTT assay (result in words) [1]: no toxicity; MTT (AC50) Conc at which 50% of maximum efficacy is reached [1]: No response; EC50 (DAOY cells; DAOY cells, n = 3 technical replicas, read-out: EC50 for the inhibition of bFGF-induced collagen I invasion): 5.92 µM; EC50 (DAOY cells; [5]): 5.92 µM; solubility (result in words) [2]: freely soluble; Papp A→B at 120 min, 10 μM [3, 14]: 4.7 ×10⁻⁶ cm/s; Papp A→B at 120 min, 10 μM [3, 16]: 4.69 ×10⁻⁶ cm/s; Papp A→B at 120 min, 10 μM [3, 17]: 4.71 ×10⁻⁶ cm/s; half-life at 1 µM [4, 20]: 29 min
